Columns and labels:
HIV protease = target: T1, HIV protease (Human immunodeficiency virus type 1 group M subtype B, UniProt P04585); assay: HIV protease enzyme assay (fluorogenic substrate 2-aminobenzoyl-Ile-Nle-Phe(p-NO2)-Gln-ArgNH2); format: biochemical
T1 construct: HIV protease is diluted in the assay buffer to a final enzyme concentration of 12.3 nanomolar, based on a molecular weight of 10,780
Excerpt: The compounds of the present invention are effective HIV protease inhibitors. Utilizing an enzyme assay as described below, the compounds set forth in the examples herein disclosed inhibited the HIV enzyme. The preferred compounds of the present invention and their calculated IC50 (inhibiting concentration 50%, i.e., the concentration at which the inhibitor compound reduces enzyme activity by 50%) values are shown in Table 6. The enzyme method is described below. The substrate is 2-aminobenzoyl-Ile-Nle-Phe(p-NO2)-Gln-ArgNH2. The positive control is MVT-101 (Miller, M. et al, Science, 246, 1149 (1989)] The assay conditions are as follows: Assay buffer: • 20 mM sodium phosphate, pH 6.4 • 20% glycerol • 1 mM EDTA • 1 mM DTT • 0.1% CHAPS
The above described substrate is dissolved in DMSO, then diluted 10 fold in assay buffer. Final substrate concentration in the assay is 80 µM.
HIV protease is diluted in the assay buffer to a final enzyme concentration of 12.3 nanomolar, based on a molecular weight of 10,780.
The final concentration of DMSO is 14% and the final concentration of glycerol is 18%. The test compound is dissolved in DMSO and diluted in DMSO to 10x the test concentration; 10 µl of the enzyme preparation is added, the materials mixed and then the mixture is incubated at ambient temperature for 15 minutes. The enzyme reaction is initiated by the addition of 40µl of substrate. The increase in fluorescence is monitored at 4 time points (0, 8, 16 and 24 minutes) at ambient temperature. Each assay is carried out in duplicate wells.

HIV-1 = assay: HIV inhibition assay of acutely infected CEM cells (tetrazolium/MTT colorimetric); format: cell-based; conditions: Table 7, CEM cells acutely infected with HIV-1, 7 days, MTT
Experimental: The effectiveness of the compounds listed in Table 7 were determined in the above-described enzyme assay and in a CEM cell assay.
(§1) Methods 20, 309-321 (1988).

CEM cells = assay: Intrinsic toxicity of test compound in uninfected CEM cells (MTT); format: cell-based; conditions: Table 7, CEM cells without virus, 7 days, read-out: TD50 (the source's name)
Excerpt: as §1

[1] = Table 6, 80 µM substrate, 12.3 nanomolar enzyme, pH 6.4
[2] = Table 7, above-described enzyme assay

Molecule	IC50 (HIV protease; [1]) [µM]	IC50 (HIV protease; [2]) [µM]	EC50 (HIV-1; Human immunodeficiency virus 1, CCRF-CEM, 168 h) [µM]	EC50 (HIV-1) [µM]	CC50 (CEM cells) [µM]
CC(C)CCN(C[C@@H](O)[C@H](Cc1ccccc1)NC(=O)OCc1ccccc1)C(=O)NC(C)(C)C (relative stereo) [Carbamic acid, [3-[[[(1,1-dimethylethyl)amino]carbonyl](3-methylbutyl)amino]-2-hydroxy-1-(phenylmethyl)propyl]-, phenylmethyl ester, [1S-[1R*,2S*]]]	0.112				
Phenylmethylamide, N-[3-[[[(1,1-dimethylethyl)amino]carbonyl](3-methylbutyl)amino]-2-hydroxy-1-(phenylmethyl)propyl]-3,3-dimethyl-, [1S-[1R*,2S*]]	0.85	0.85			
COc1ccc(COC(=O)N[C@@H](Cc2ccccc2)[C@H](O)CN(CCC(C)C)C(=O)NC(C)(C)C)cc1 (relative stereo) [Carbamic acid, [3-[[[(1,1-dimethylethyl)amino]carbonyl](3-methylbutyl)amino]-2-hydroxy-1-(phenylmethyl)propyl]-, (4-methoxyphenyl)methyl ester, [1S-[1R*,2S*]]]	0.489		0.82		
CC(C)C[C@H](NC(=O)[C@@H](N)Cc1ccccc1)C(=O)NC(=O)NC[C@H](O)[C@H](Cc1ccccc1)NC(=O)OC(C)(C)C [(2S,3S)-3-(N-1,1-dimethylethoxycarbonyl)amido-1-(L-phenylalanyl-L-leucylcarbamoyl)amino-4-phenyl butanol]	5	5		13	54

From EP0554400B1, “RETROVIRAL PROTEASE INHIBITORS” (MONSANTO COMPANY, priority 1990, dated 1992)
